Data: paper PMC12477777, “Human exposure to green spaces and monoterpenes: discovery and use of α-pinene metabolites as biomarkers” (Environment international, 2025)
Like-named read-outs stand apart in the source and are kept apart here.

Assays:
[1] = Kinetic modeling of urinary aPM with a pseudo one-compartment nonlinear mixed-effects model after α-pinene inhalation; format: in vivo, human; conditions: for F (%), fraction of metabolite generated from absorbed α-pinene: human urine after 10 min α-pinene inhalation, F normalized to the sum of 22 detected metabolites; for Elimination t1/2 / Ka, first-order generation constant / Ke, first-order elimination rate constant / half-life / k el: human urine after α-pinene inhalation, pseudo one-compartment model; for half-life / k el: inhaled or intranasal; for half-life: read-out: Elimination t1/2 (converted); for k el: read-out: Ke, first-order elimination rate constant (converted)
Excerpt: In this equation, i represents the participant index, j the urine sample index, C the creatinine-normalized peak response, and t the sample collection time ( h).Ka denotes the first-order generation constant ( h^−1 ), and Ke denotes the first-order elimination rate constant h^−1 . F indicates the fraction of specific aPM relative to absorbed α-pinene. The variables D and V refer to the absorbed α-pinene amount and the distribution volume, respectively. Because input data were derived from relative quantification, absolute values of D , V , and F were not available. For simplicity, D and V were fixed at 100 and 1, respectively, and F was normalized relative to the sum of all detected aPM. The error term ε accounts for residual variation.

[2] = Urinary aPM after 4 h greenness (forest) exposure; format: in vivo, human; parameters: Maximum response: unit not given here; conditions: for Frequency of occurrence / Maximum response: human urine, greenness exposure; for Proportion (observed) after greenness exposure: share of total aPM response
Description: (§1) Briefly, for controlled inhalation experiments, eight healthy volunteers were exposed to α-pinene in a custom-built exposure chamber via inhalation from a 15 ml conical tube, containing approximately 100 μl α-pinene, for a duration of 10 min. Urine samples were collected before exposure (0 h) and 0.5, 1, 2, 3, and 4 h after exposure. […] Urine samples were collected both before (0 h) or 4 h after exposure. After collection, the urine samples were centrifuged and stored at −80 °C before analysis. […] Demographic information, including sex, age and race, can be found in Table S1.
(§2) Briefly, after 1:10 dilution, urine samples were separated using an Acquity I-Class UPLC system with an Acquity Premier CSH C18 UPLC column (Waters, MA) with a gradient comprising 0.1 % formic acid in water as the solvent A and 0.1 % formic acid in acetonitrile as the solvent B. Mass Spectrometry Elevated Energy (MS^E) data were collected using a Waters Synapt XS MS (Waters, MA) with an ESI ion source operated in the negative mode. Subsequent analyses of raw files were performed using UNIFI 1.9 and Progenesis QI 3.0 (both from Waters, MA). To validate LC-MS performance, one quality control (QC) sample, prepared by pooling equal amount of each urine sample, was injected after every ten urine sample injections.
(§3) Relative quantification of aPM was performed based on the peak responses normalized to urinary creatinine levels. Urinary creatinine levels were measured using an Ace Axcel Clinical Chemistry System with ACE Creatinine Reagent from Alfa Wassermann (West Caldwell, NJ). Statistical analyses, including ANOVA and Student’s t-tests, were conducted using SAS 9.4 (SAS Institute, NC) to explore differences in aPM across various time points. […] A threshold for statistical significance was defined as p < 0.05.

[3] = aPM in mouse urine after i.p. injection of (+)-α-pinene or (−)-α-pinene; format: in vivo, mice (C57BL/6); conditions: for R/(R+S): mouse urine, enantiomer specificity
Description: Mouse urine was collected after exposures to either (+) or (−) α-pinene to distinguish between metabolites of different enantiomers of α-pinene. Adult male mice (C57BL/6) were intraperitoneally administered with 50 mg/kg body weight of (+)-α-pinene or (−)-α-pinene dissolved in 100 μl sterile saline with 1 % Tween 80.

[4] = Relative quantification of urinary aPM (UPLC-QTOF-MS, creatinine-normalized) after controlled α-pinene inhalation; format: in vivo, human; conditions: for Frequency of occurrence (percentage of samples with analyte detected) / Maximum response (highest peak response across all urine samples) / Observed Tmax / Tmax: human urine after α-pinene inhalation; for Proportion (observed) after α-pinene inhalation: share of total response of 22 aPM, averaged over post-exposure samples; for Tmax: inhaled or intranasal, read-out: Observed Tmax
Description: as §1, §2, §3

[5] = cited from earlier work
[6] = mouse urine collected overnight, 50 mg/kg i.p. (+)-α-pinene, 50 mg/kg
[7] = mouse urine collected overnight, 50 mg/kg i.p. (−)-α-pinene, 50 mg/kg
[8] = male, C57BL/6, mouse, in vivo, ip, 50 mg/kg

| Compound | F (%), fraction of metabolite generated from absorbed α-pinene [1] [%] | Elimination t1/2 [1] [min] | Ka, first-order generation constant [1] [h⁻¹] | Ke, first-order elimination rate constant [1] [h⁻¹] | Frequency of occurrence [2] [%] | (1R)-(+)-α-Pinene (Average), proportion of aPM in mouse urine [3, 6] [%] | (1S)-(−)-α-Pinene (Average), proportion of aPM in mouse urine [3, 7] [%] | R/(R+S) [3] [%] | Frequency of occurrence (percentage of samples with analyte detected) [4] [%] | Maximum response (highest peak response across all urine samples) [4] | Observed Tmax [4] [min] | Proportion (observed) after α-pinene inhalation [4] [%] | Maximum response [2] | Proportion (observed) after greenness exposure [2] [%] | further results |
| --- | --- | --- | --- | --- | --- | --- | --- | --- | --- | --- | --- | --- | --- | --- | --- |
| CC1(C)C2CC1C(OC1OC(C(=O)O)C(O)C(O)C1O)C=C2C(=O)O (single isomer, unassigned) [aPM5d, Myrtenic acid-4-O-GlcA] | 0.27 ± 0.09 | 78.6 ± 27.6 | 1.33 ± 0.51 | 0.53 ± 0.19 | 0.0 | 0.2 | 0.0 | 100 | 81.3 | 5115 | 60 | 0.4 | – | – | – |
| CC1(C)C2CC1C(OC1OC(C(=O)O)C(O)C(O)C1O)C=C2C(=O)O (single isomer, unassigned) [aPM5e, Myrtenic acid-4-O-GlcA] | 0.38 ± 0.16 | 45.6 ± 16.8 | 0.91 ± 0.36 | 0.91 ± 0.34 | 25.0 | 0.0 | 0.3 | 0 | 72.9 | – | 60 | 0.3 | 93 | 1.0 | – |
| CC1(C)C2CC1C(OC1OC(C(=O)O)C(O)C(O)C1O)C=C2C(=O)O (single isomer, unassigned) [aPM5f, Myrtenic acid-4-O-GlcA] | 0.29 ± 0.12 | 57 ± 22.2 | 1.53 ± 0.71 | 0.73 ± 0.29 | 0.0 | 0.0 | 0.0 | – | 87.5 | 5543 | 60 | 0.5 | – | – | – |
| CC1(C)C2CC1C(OC1OC(C(=O)O)C(O)C(O)C1O)C=C2C(=O)O (single isomer, unassigned) [aPM5g, Myrtenic acid-4-O-GlcA] | 5.10 ± 2.25 | 41.4 ± 17.4 | 1.62 ± 0.81 | 1.01 ± 0.43 | 25.0 | 0.0 | 0.0 | – | 100.0 | 77327 | 60 | 4.4 | 98 | 0.4 | – |
| CC1(C)C2CC1C(C(=O)O)=CC2=O (stereo not shown) [aPM1, Myrtenic acid-4-one] | 1.15 ± 0.39 | – | 1.25 ± 0.43 | – | 31.3 | – | – | – | 95.8 | 17385 | – | 1.8 | 3544 | 1.3 | half-life [1]: 72 ± 22.8 min; k el [1]: 0.000161 s⁻¹; (1R)-(+)-α-Pinene (Average), proportion of aPM in mouse urine [3, 8]: 0.1%; (1S)-(−)-α-Pinene (Average), proportion of aPM in mouse urine [3, 8]: 0.8%; Tmax [4]: 60 min |
| CC1=CC(OC2OC(C(=O)O)C(O)C(O)C2O)C2CC1C2(C)C (stereo not shown) [aPM2b, verbenol glucuronide] | 17.23 ± 3.91 | – | 3.46 ± 0.98 | – | 6.3 | – | – | – | 100.0 | – | – | – | 171 | 0.3 | half-life [1]: 35.4 ± 4.8 min; k el [1]: 0.000325 s⁻¹; (1R)-(+)-α-Pinene (Average), proportion of aPM in mouse urine [3, 8]: 50.5%; (1S)-(−)-α-Pinene (Average), proportion of aPM in mouse urine [3, 8]: 34.4%; Detection in mouse urine ([3]; mouse, in vivo): present in murine samples; Tmax [4]: 30 min |
| CC1(C)C2CC=C(COC3OC(C(=O)O)C(O)C(O)C3O)C1C2 (stereo not shown) [aPM2c, myrtenol glucuronide] | 6.99 ± 2.12 | – | 3.02 ± 0.88 | – | 31.3 | – | – | – | 95.8 | 154854 | – | 4.9 | 1435 | 0.5 | half-life [1]: 30 ± 5.4 min; k el [1]: 0.000386 s⁻¹; (1R)-(+)-α-Pinene (Average), proportion of aPM in mouse urine [3, 8]: 21.8%; (1S)-(−)-α-Pinene (Average), proportion of aPM in mouse urine [3, 8]: 30.3%; Tmax [4]: 30 min |
| C=C(C)[C@H]1CC=C(C)CC1 [limonene] | – | – | – | – | – | – | – | – | – | – | – | – | – | – | Blood half-life (t1/2α) ([5]; limonene in blood, ref Falk-Filipsson et al., 1993): ~ 3 min |
| CC1=CCC2CC1C2(C)C (stereo not drawn) [α-pinene, α-Pinene] | – | – | – | – | – | – | – | – | – | – | – | – | – | – | Blood half-life (t1/2α) ([5]; α-pinene in blood, ref Falk et al., 1990): ~ 5 min |
| Myrtenic acid-4-O-7-O-GlcA [aPM8] | 0.65 ± 0.31 | 58.2 ± 25.2 | 0.73 ± 0.33 | 0.71 ± 0.31 | 0.0 | – | – | – | 83.3 | 13644 | 60 | 0.8 | – | – | (1R)-(+)-α-Pinene (Average), proportion of aPM in mouse urine ([3]; mouse urine collected overnight, 50 mg/kg i.p. (+)-α-pinene): 0.0%; (1S)-(−)-α-Pinene (Average), proportion of aPM in mouse urine ([3]; mouse urine collected overnight, 50 mg/kg i.p. (−)-α-pinene): 0.0% |
| Pinanetriol-GlcA [aPM7a] | 1.56 ± 0.66 | 44.4 ± 13.2 | 1.46 ± 0.48 | 0.93 ± 0.27 | 0.0 | 21.2 | 3.8 | 84.7 | 89.6 | 20611 | 60 | 1.3 | – | – | – |
| Pinanetriol-GlcA [aPM7b] | 0.28 ± 0.09 | 36.6 ± 7.2 | 2.69 ± 0.73 | 1.15 ± 0.22 | 0.0 | 3.7 | 0.0 | 100 | 83.3 | 8663 | 30 | 0.2 | – | – | – |
